We go through eleven compounds from publication PMC7139940, “Comparative Analysis of High-Throughput Assays of Family-1 Plant Glycosyltransferases” (International Journal of Molecular Sciences, 2020).

The structures appear in SMILES notation.

The test system of one assay is T1, UGT72B27.
T1 construct: recombinant GST fusion (pGEX-4T-1) from E. coli BL21(DE3) pLysS, purified on GST resin
In words: UDP-Glo luminescent UDP release assay, 384-well. The format is biochemical, Vitis vinifera. The note with it: 100 µM UDP-glucose, 50 mM Tris/HCl pH 7.5, 30 °C, 10 min, heat stop; poorly soluble, high DMSO; read-out: b. UDP-Glo^TM Assay / KM. An excerpt: UDP-Glo luminescent UDP release assay, 384-well on UGT72B27
With `Oc1ccc(/C=C/c2cc(O)cc(O)c2)cc1` [trans-Resveratrol], the Km came out at 21 ± 5 µM.

The same assay, now with this note: 100 µM UDP-glucose, 50 mM Tris/HCl pH 7.5, 30 °C, 10 min, heat stop; read-out: b. UDP-Glo^TM Assay / KM.
For the compound `COc1cccc(OC)c1O` [DMP, 2,6-Dimethoxyphenol], the Km is 23 ± 3 µM.
On to `CC1=C(O)C(=O)C(C)O1` (centres unmarked) [Furaneol], for which the Km worked out at 453 ± 35 µM.
The same measure, in the same setting: in the case of `COc1cc(C)ccc1O` [MMP, 2-Methoxy-4-methylphenol] it was 41 ± 9 µM; in that of `Oc1cc(O)cc(O)c1` [Phloroglucinol], 35 ± 4 µM; in that of `Cc1cccc(O)c1` [m-Cresol], 14 ± 3 µM.
For the compound `Cc1ccccc1O` [o-Cresol], the Km was 40 ± 5 µM.
Regarding `COc1cc(C)cc(OC)c1O` [MDMP, 4-Methyl-2,6-dimethoxyphenol], the Km was found to be 173 ± 28 µM.
For the compound `Cc1ccc(C(C)C)c(O)c1` [Thymol], the Km worked out at 28 ± 7 µM.
Regarding `COc1ccccc1O` [Guaiacol, 2-Methoxyphenol], the Km turned out to be 23 ± 1 µM.
Same read-out and setting: in the case of `Oc1ccccc1` [Phenol] it was 153 ± 24 µM.
